# In US9249115B2, “N,N1 substituted piperazines having combined antiaggregant, anticoagulant and vasodilatory activity, and method for producing same” (Vertex Closed Joint Stock Company, priority 2011, dated 2016):
# Tests used:
# [1] = test system: experimental photothrombosis; test: Experimental photothrombosis model, arterial blood velocity; type: in vivo, Wistar male rats
# Procedure: The studies were done on Wistar male rats with mass of 230±30 g (laboratory animals nursery “Rappolovo”, RAMS). The animals were kept with unlimited food (standard ration for laboratory rats K-120 by <<Inform-korm>>, Russia) and water allowance. […]
# Thrombosis modeling: the drugs were introduced into left femoral vein, in 50 min afterwards 1 ml of Bengal rose A photosensitizer (Acros Organics, USA) solution was introduced with dose of 17 mg/kg [Boselli 2007, Petrischev 2009]. Then the incision of internal surface of animal right thigh about 2 cm in length was made. The section of the femoral vein about 5 mm in length was released from surrounding tissues and separated from neurovascular bundle. Beneath this section of the vein the black non-transparent plastic strip 3 mm in width was laid to screen off the vein and surrounding tissues from radiation. The irradiation was done using diode laser <<DPSS-laser>> (Diode Pumped Solid State Laser, South Korea) with 532 nm wavelength and 60 mW power. The area of irradiation was 1 mm^2, exposing time was 40 min. The blood flow in femoral artery was measured by high frequency Doppler ultrasonography method (<<Minimax-Doppler-K>> apparatus, frequency of sensor was 20 MHz). The blood velocity alteration due to irradiation was measured (Table 9).
# mesentery venules = test: Vasodilator properties, microcirculatory vessel responsiveness to noradrenalin, venules; type: in vivo, Wistar male rats
# Procedure: Vasodilator properties of N,N′-substituted piperazines were evaluated according to their influence on microcirculatory vessel responsiveness.
# The studies were done on Wistar male rats with mass of 300±30 g (laboratory animals nursery “Rappolovo”, RAMS). The animals were kept with unlimited food (standard ration for laboratory rats K-120 by <<Inform-korm>>, Russia) and water allowance.
# The solutions of N,N′-substituted piperazines and physiological (control) solution were introduced via bolus injection within 1 min into caudal vein of non-anaesthetized animals according to the dosage of 5.0 ml per 1 kg. Immediately after the introduction the animals were put in separate standard cages for observation.
# In 30 min after the injection the animals were anaesthetized (thiopental sodium, 60 mg/kg intraperitoneally). The loop of small intestine adjoined to mesoappendix was retrieved through inferomedian incision. To study microcirculation in mesentery venules and arterioles in transmitted light the rat was placed on thermostated microscope objective table. The application of noradrenalin solution (Aguettant, 2 mg/ml, Laboratoire AGUETTANT, France) was done directly on the mesentery (Furness J. B., Marshall J. M., 1974; Yantareva L. I., 2004).
# The study of microcirculatory vessels was done with LUMAM I1 microscope (LOMO, Russia). The recording of video data was done with the camera (Optics and Electronics ISTA Ltd) attached to a personal computer. The processing of data was done with Video-Test 4.0 software (ISTA Ltd., Russia). The diameter of the vessel wall (D, m) before and after the application of noradrenalin and the starting time of blood flow slowdown induced by noradrenalin were measured (the measurements were done for 1 min after the application).
# [2] = 0.01 mmol/kg, noradrenalin 10^−6 g/ml
# [3] = 0.025 mmol/kg, noradrenalin 10^−7 g/ml
smiles,measurement,setting,value
"O=C(O)/C=C/c1ccc(Cn2ccnc2)cc1 [Ozagrel, reference compound]","V, cm/s (arterial blood velocity)","[1]; 0.01 mmol/kg, 0 min of irradiation",10.9 ± 2.9 cm/s
same,"V, cm/s (arterial blood velocity)","[1]; 0.01 mmol/kg, 10 min of irradiation",5.7 ± 1.8 cm/s
same,"V, cm/s (arterial blood velocity)","[1]; 0.01 mmol/kg, 20 min of irradiation",Absence of blood flow
same,"V, cm/s (arterial blood velocity)","[1]; 0.01 mmol/kg, 30 min of irradiation",Absence of blood flow
same,"V, cm/s (arterial blood velocity)","[1]; 0.01 mmol/kg, 40 min of irradiation",Absence of blood flow
same,"V, cm/s (arterial blood velocity)","[1]; 0.025 mmol/kg, 0 min of irradiation",9.0 ± 2.7 cm/s
same,"V, cm/s (arterial blood velocity)","[1]; 0.025 mmol/kg, 10 min of irradiation",5.1 ± 1.7 cm/s
same,"V, cm/s (arterial blood velocity)","[1]; 0.025 mmol/kg, 20 min of irradiation",3.8 ± 1.0 cm/s
same,"V, cm/s (arterial blood velocity)","[1]; 0.025 mmol/kg, 30 min of irradiation",5.5 ± 1.4 cm/s
same,"V, cm/s (arterial blood velocity)","[1]; 0.025 mmol/kg, 40 min of irradiation",5.8 ± 1.7 cm/s
same,% of vessel constriction,mesentery venules; [2],44%
same,"Blood flow slowdown, Latent period of slowdown",mesentery venules; [2],32 ± 4 s
same,% of vessel constriction,mesentery venules; [3],27%
same,"Blood flow slowdown, Latent period of slowdown, s",mesentery venules; [3],No slowdown
